How the values were obtained:
[1] = wn = mass fraction of the nth substance listed; conditions: 295 K, w2 = 0
[2] = refractive index (Na D-line) (dimensionless); wn = mass fraction of the nth substance listed; conditions: 101.3 kPa, Liquid, Standard Abbe refractometry

O [water] + N#C[S-].[K+]
Conditions	surface tension liquid-gas [mN/m]
[1], Wilhelmi plate	72.28

[1], 101.3 kPa, Liquid
Conditions	mass density [kg/m3]	viscosity [mPa·s]
Buoyancy - hydrostatic balance	999	–
Concentric cylinders viscometry	–	0.975

[2], w2 = 0
Conditions	refractive index
293 K	1.3333
298 K	1.3326
303 K	1.3321
308 K	1.33165
313 K	1.33085

[I-].[Na+] [sodium iodide] + O
refractive index, [2]
Conditions	296 K	298 K
w1 = 0.332	1.3939	–
w1 = 0.359	1.40055	–
w1 = 0.374	1.4045	–
w1 = 0.39	1.40905	–
w1 = 0.408	1.41365	–
w1 = 0.427	1.4193	–
w1 = 0.449	1.426	–
w1 = 0.46	1.4295	–
w1 = 0.472	1.43335	–
w1 = 0.485	1.4376	–
w1 = 0.498	1.4421	1.4428
w1 = 0.512	–	1.44745
w1 = 0.513	1.44705	–
w1 = 0.518	–	1.44985
w1 = 0.524	–	1.45195
w1 = 0.528	1.4523	–
w1 = 0.53	–	1.45405
w1 = 0.536	–	1.45645
w1 = 0.543	–	1.45915
w1 = 0.544	1.4581	–
w1 = 0.549	–	1.4615
w1 = 0.556	–	1.46395
w1 = 0.56	1.4648	–
w1 = 0.563	–	1.4666
w1 = 0.57	–	1.4694
w1 = 0.577	–	1.4721
w1 = 0.579	1.472	–
w1 = 0.585	–	1.4744
w1 = 0.598	1.4797	–

— the NIST ThermoML archive (doi:10.1021/acs.jced.7b00904)
